In article PMC12195695, “Multifaceted Biological Activity of Rutin, Quercetin, and Quercetin’s Glucosides” (Molecules, 2025):
Values joined by “and” are separate entries in the source; they are usually repeats but may differ in a detail not shown here. Identical values can stand only once. Counter-ions that a name gives are not always drawn. Like-named read-outs stand apart in the source and are kept apart here. Marks after values point to notes of the source that are not given here.

Legend:
[1] = system: advanced glycation endproduct (AGE) formation in BSA/MGO model system; assay: Inhibition of AGE formation, BSA/MGO model system; type: biochemical; settings: for IC50: BSA/MGO, fluorescence, linear regression, read-out: IC50 against AGE formation, BSA/MGO Model System; for anti-AGE activity higher in comparison to Ru / anti-AGE activity higher in relation to AG: BSA/MGO model system
Protocol: (§1) The positive control aminoguanidine and standards of rutin, quercetin, and quercetin’s glucosides were dissolved in DMSO and then in a phosphate buffer. The inhibitory activity against the formation of AGEs was analyzed in BSA/glucose and BSA/MGO model systems, as reported by Thornalley, and the fluorescent intensity was measured. The percentage of inhibition of AGEs was calculated from the obtained fluorescence of the test solution with or without inhibitors.

[2] = system: advanced glycation endproduct (AGE) formation in BSA/glucose model system; assay: Inhibition of AGE formation, BSA/glucose model system; type: biochemical; settings: fluorescence, linear regression, read-out: IC50 against AGE formation, BSA/Glucose Model System
Protocol: as §1

[3] = Cyclic voltammetry: oxidation potential and antioxidant activity vs Trolox; type: physicochemical; settings: vs. Ag/AgCl, 50 mM acetate-acetic buffer (pH 5.5) in 80% methanol, scan rate 100 mV s^-1, n = 6
[4] = as above; type: physicochemical; settings: for Antioxidant power class based on first oxidation potential: classification according to Blasco et al. [51]; for Antioxidant Activity: cyclic voltammetry, area under anodic wave, 0.1 mM compound, Trolox regression, n = 6
Protocol: A galvanostat G 750 (Gamry Ins., Warminster, PA, USA) with a conventional three-electrode system was used for the cyclic voltammetric experiments, with Ru, Q, Ru, Q4′G, Q3G, and Q34′G (0.1 mM in 80% methanol) or Trolox solutions (0.1–2.5 mM) mixed with 0.2 M sodium acetate–acetic buffer (pH 4.5 in 80% methanol) at a ratio of 1:1 (v/v), as has previously been described in detail. The cyclic voltammograms were acquired in the range of −100 to 1300 mV at a scanning rate of 100 mV s^−1.

[5] = target: T1, angiotensin-converting enzymes (ACEs) from porcine kidneys (EC 3.4.15.1) (Sus scrofa, UniProt F1RRW5); assay: biochemical
T1 construct: angiotensin-converting enzymes (ACEs) from porcine kidneys (EC 3.4.15.1); purchased Sigma (Sigma Chemical Company, Saint Louis, MO, USA); host or cells: porcine kidney
T1 sequence (F1RRW5 34-1309): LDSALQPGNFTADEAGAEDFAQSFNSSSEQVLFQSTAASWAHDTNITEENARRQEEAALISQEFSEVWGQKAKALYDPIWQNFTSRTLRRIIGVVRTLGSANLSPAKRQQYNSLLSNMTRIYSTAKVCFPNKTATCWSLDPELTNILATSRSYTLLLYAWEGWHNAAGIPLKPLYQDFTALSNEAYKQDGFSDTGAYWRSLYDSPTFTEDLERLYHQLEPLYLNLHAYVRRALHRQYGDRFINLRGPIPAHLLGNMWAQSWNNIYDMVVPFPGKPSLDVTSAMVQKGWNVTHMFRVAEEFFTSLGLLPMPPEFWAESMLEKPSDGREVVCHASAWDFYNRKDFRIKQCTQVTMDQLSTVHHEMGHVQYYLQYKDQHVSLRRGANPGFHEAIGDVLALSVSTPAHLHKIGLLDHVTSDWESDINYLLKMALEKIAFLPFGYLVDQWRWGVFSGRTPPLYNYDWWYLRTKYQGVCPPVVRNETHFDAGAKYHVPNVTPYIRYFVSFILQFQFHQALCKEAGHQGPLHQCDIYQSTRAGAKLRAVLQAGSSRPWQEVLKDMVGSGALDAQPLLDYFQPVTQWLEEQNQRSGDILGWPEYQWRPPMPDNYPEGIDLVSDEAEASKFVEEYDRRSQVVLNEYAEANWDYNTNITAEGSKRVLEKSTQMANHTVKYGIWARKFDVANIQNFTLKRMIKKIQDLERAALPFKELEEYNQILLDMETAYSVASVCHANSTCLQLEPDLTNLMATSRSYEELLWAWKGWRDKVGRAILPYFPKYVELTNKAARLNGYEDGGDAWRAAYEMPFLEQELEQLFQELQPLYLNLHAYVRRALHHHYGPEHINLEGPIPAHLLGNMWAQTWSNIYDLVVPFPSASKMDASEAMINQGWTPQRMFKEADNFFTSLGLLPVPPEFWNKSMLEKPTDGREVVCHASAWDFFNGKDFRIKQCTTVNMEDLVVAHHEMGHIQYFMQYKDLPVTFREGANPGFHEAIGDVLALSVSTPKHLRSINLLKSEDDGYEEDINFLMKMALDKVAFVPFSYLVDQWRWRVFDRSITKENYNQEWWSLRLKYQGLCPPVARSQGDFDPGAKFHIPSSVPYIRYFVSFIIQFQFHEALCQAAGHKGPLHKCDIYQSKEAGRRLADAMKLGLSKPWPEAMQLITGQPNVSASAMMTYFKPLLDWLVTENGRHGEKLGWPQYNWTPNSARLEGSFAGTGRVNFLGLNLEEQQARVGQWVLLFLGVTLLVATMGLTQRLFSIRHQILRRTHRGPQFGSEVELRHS
Protocol: Standards of rutin, quercetin, and quercetin’s glucosides were dissolved in 80% methanol. Each standard was diluted to various concentrations using deionized water to determine its ACE inhibitory activity, expressed as an IC50 value. The ACE stock solution was prepared by dissolving enzyme in glycerol at 50% with Buffer A (protein concentration approximately 150 μg/mL), whereas the working solution was prepared by the dilution of the stock solution with Buffer B to make a protein concentration of approximately 7.5 μg/mL. The substrate stock solution was prepared by dissolving the whole content (50 mg) of Abz-Gly-Phe (NO2)-Pro (Bachem) in 10.33 mL of Buffer C (concentration approximately 10 mM), while the working solution was prepared by the dilution of the substrate stock solution with Buffer C to make a final Abz-Gly-Phe (NO2)-Pro concentration of approximately 0.45 mM. […] The angiotensin-converting enzyme (ACE) inhibitory activity assay was conducted according to the method of Sentandreu and Toldra. The fluorescence generated was measured using a Tecan Infinite M1000 PRO multiscan microplate fluorometer (TK Biotech, Warsaw, Poland). To calculate the % of inhibition of ACE, the following equation was used: […] = 100 − (ΔRFUsample ∗ 100/ΔRFUnegative control) where ΔRFU = RFUat time 30 − RFUat time 0.
The IC50 value, indicating the sample concentration at a 50% inhibition of ACE activity, was determined using linear regression analysis of logarithmic plots. At least 3 replicates for each standard solution were conducted. Results were expressed as IC50 values.

ACE = system: ACE; set-up: method as in earlier work; settings: same fluorimetric method; ref 30 (Guerrero et al.); read-out: IC50 for ACE inhibition (literature); cited from earlier work

## N=C(N)NN [AG, aminoguanidine hydrochloride, reference compound]
[1]
  IC50: 531 ± 28 µM
[2]
  IC50: 432 ± 38 µM

## O=c1c(O[C@@H]2O[C@H](CO)[C@@H](O)[C@H](O)[C@H]2O)c(-c2ccc(O)c(O)c2)oc2cc(O)cc(O)c12 [Compound Q3G, quercetin-3-O-β-glucoside]
[1]
  anti-AGE activity higher in comparison to Ru: 6%
  anti-AGE activity higher in relation to AG: 37%
  IC50: 389 ± 22 µM
[3]
  First Oxidation Potential: 390 mV and 390 ± 4 ^d mV
[4]
  Antioxidant power class based on first oxidation potential: intermediate potentials (compounds with intermediate potentials (0.3 V < Ep < 0.8 V))
  Antioxidant Activity: 2.59 ± 0.04 ^b mM Trolox
[5]
  IC50: 135.2 ± 1.04 µM
[2]
  IC50: 47 ± 3 µM

## N[C@@H](CCC(=O)N[C@@H](CS)C(=O)NCC(=O)O)C(=O)O [GSH, reduced glutathione, reference compound]
[5]; IC50 for ACE inhibition, concentration range 1.0-0.01 mM, linear regression, n = 6
  IC50: 41.7 µM

## O=c1c(O[C@@H]2O[C@H](CO)[C@@H](O)[C@H](O)[C@H]2O)c(-c2ccc(O[C@@H]3O[C@H](CO)[C@@H](O)[C@H](O)[C@H]3O)c(O)c2)oc2cc(O)cc(O)c12 [Q3,4′G, quercetin-3,4′-di-O-β-glucoside]
[1]
  anti-AGE activity higher in comparison to Ru: 27%
  anti-AGE activity higher in relation to AG: 64%
  IC50: 324 ± 19 µM
[3]
  First Oxidation Potential: 800 mV and 800 ± 7 ^a mV
[4]
  Antioxidant power class based on first oxidation potential: low antioxidant power (a compound with a low antioxidant power (0.8 V < Ep < 1.3 V))
  Antioxidant Activity: 1.07 ± 0.05 ^d mM Trolox
[5]
  IC50: 115 ± 1.25 µM
[2]
  IC50: 89 ± 5 µM

## O=c1c(O)c(-c2ccc(O[C@@H]3O[C@H](CO)[C@@H](O)[C@H](O)[C@H]3O)c(O)c2)oc2cc(O)cc(O)c12 [Q4′G, quercetin-4′-O-β-glucoside]
[1]
  anti-AGE activity higher in comparison to Ru: 11%
  anti-AGE activity higher in relation to AG: 44%
  IC50: 370 ± 23 µM
[3]
  First Oxidation Potential: 482 mV and 482 ± 3 ^b mV
[4]
  Antioxidant power class based on first oxidation potential: intermediate potentials (compounds with intermediate potentials (0.3 V < Ep < 0.8 V))
  Antioxidant Activity: 1.99 ± 0.09 ^c mM Trolox
[5]
  IC50: 143 ± 1.44 µM
[2]
  IC50: 259 ± 16 µM

## O=c1c(O)c(-c2ccc(O)c(O)c2)oc2cc(O)cc(O)c12 [Q, quercetin]
ACE
  IC50: 43 µM
[1]
  IC50: 466 ± 17 µM
[3]
  First Oxidation Potential: 310 mV and 310 ± 4 ^e mV
[4]
  Antioxidant Activity: 3.92 ± 0.20 ^a mM Trolox
[5]
  IC50: 59.29 ± 0.48 µM
[2]
  IC50: 243 ± 12 µM

## C[C@@H]1O[C@@H](OC[C@H]2O[C@@H](Oc3c(-c4ccc(O)c(O)c4)oc4cc(O)cc(O)c4c3=O)[C@H](O)[C@@H](O)[C@@H]2O)[C@H](O)[C@H](O)[C@H]1O [Ru, quercetin-3-O-rutinoside]
ACE
  IC50: 64 µM
[1]
  IC50: 413 ± 24 µM
[3]
  First Oxidation Potential: 410 mV and 410 ± 5 ^c mV
[4]
  Antioxidant power class based on first oxidation potential: intermediate potentials (compounds with intermediate potentials (0.3 V < Ep < 0.8 V))
  Antioxidant Activity: 2.04 ± 0.07 ^c mM Trolox
[5]
  IC50: 121 ± 1.56 µM
[2]
  IC50: 197 ± 8 µM
